Measurements taken from US12410208B2, “(2-acetamidyl)thio-beta-D-galactopyranoside derivatives” (Idorsia Pharmaceuticals Ltd, priority 2020, dated 2025).
Like-named read-outs stand apart in the source and are kept apart here.

What was measured:
[1] = molecular target: biotinylated human Gal-3 (hGal-3) (Homo sapiens, UniProt P17931); assay: Competitive binding assay: biotinylated hGal-3 binding to microplate-adsorbed asialofetuin (ASF), spectrophotometric
Procedure, shortened: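 Serially diluted compounds competed with asialofetuin on the plate for biotinylated human Gal-3 during a 3 h incubation at 4° C. Streptavidin-peroxidase with ABTS gave the spectrophotometric signal. IC50 values were averaged over repeat runs.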

human Gal-1 (hGal-1) = human Gal-1 (hGal-1) (Homo sapiens, UniProt P09382); assay: Competitive binding assay: biotinylated hGal-1 binding to microplate-adsorbed asialofetuin (ASF), spectrophotometric; conditions: hGal-1 binding to asialofetuin; Table 15; R and S epimers of selected Examples also listed; read-out: IC50 (Galectin-1 inhibition)
human Gal-1 (hGal-1), sequence (P09382 whole entry): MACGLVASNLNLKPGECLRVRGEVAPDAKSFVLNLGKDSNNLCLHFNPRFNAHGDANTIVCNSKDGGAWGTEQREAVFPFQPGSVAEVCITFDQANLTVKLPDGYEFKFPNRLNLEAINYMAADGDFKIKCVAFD
Procedure, shortened: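 Spectrophotometric competition readout with ABTS after streptavidin-peroxidase (80 ng/mL, 1 h, 4 °C) detection of bound biotinylated hGal-1.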

[2] = Gal-3 inhibition, Table 4, read-out: IC50
[3] = Gal-3 inhibition, Table 5, read-out: IC50
[4] = Table 8, hGal-3, read-out: IC50 (Gal-3 inhibition)
[5] = Table 12, hGal-3, read-out: IC50 (Gal-3 inhibition)

biotinylated human Gal-3 (hGal-3), sequence (P17931 whole entry): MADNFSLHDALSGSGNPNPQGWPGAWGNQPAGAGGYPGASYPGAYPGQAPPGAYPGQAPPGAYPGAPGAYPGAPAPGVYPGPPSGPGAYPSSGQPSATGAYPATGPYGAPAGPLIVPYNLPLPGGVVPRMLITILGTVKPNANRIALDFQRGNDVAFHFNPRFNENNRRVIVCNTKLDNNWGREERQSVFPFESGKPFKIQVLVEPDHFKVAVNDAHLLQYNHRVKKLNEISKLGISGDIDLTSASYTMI

IC50 [1, 2] | IC50 (human Gal-1 (hGal-1)) | IC50 [1, 3] | IC50 [1, 4] | IC50 [1, 5] | Compound
0.06 µM | 0.22 µM | – | – | – | CN(CCC1CC1)C(=O)C(S[C@@H]1O[C@H](CO)[C@H](O)[C@H](n2cc(-c3cc(F)c(F)c(F)c3)nn2)[C@H]1O)C1(O)CCOCC1 (stereo partly drawn) [Example 2.41.217., N-(2-Cyclopropylethyl)-2-(((2S,3R,4S,5R,6R)-3,5-dihydroxy-6-(hydroxymethyl)-4-(4-(3,4,5-trifluorophenyl)-1H-1,2,3-triazol-1-yl)tetrahydro-2H-pyran-2-yl)thio)-2-(4-hydroxytetrahydro-2H-pyran-4-yl)-N-methylacetamide]
0.12 µM | 0.23 µM | – | – | – | CN1CCC(O)(C(S[C@@H]2O[C@H](CO)[C@H](O)[C@H](n3cc(-c4cc(F)c(F)c(F)c4)nn3)[C@H]2O)C(=O)N2CCc3ccccc32)CC1 (stereo partly drawn) [Example 2.40.209., 2-(((2S,3R,4S,5R,6R)-3,5-Dihydroxy-6-(hydroxymethyl)-4-(4-(3,4,5-trifluorophenyl)-1H-1,2,3-triazol-1-yl)tetrahydro-2H-pyran-2-yl)thio)-2-(4-hydroxy-1-methylpiperidin-4-yl)-1-(indolin-1-yl)ethan-1-one]
– | 0.08 µM | 0.07 µM | – | – | CN(CC1(F)CCCC1)C(=O)[C@@H](S[C@@H]1O[C@H](CO)[C@H](O)[C@H](n2cc(-c3cc(F)c(F)c(F)c3)nn2)[C@H]1O)C1(O)CCC(F)(F)CC1 [Example 2.44.223S., (S)-2-(4,4-Difluoro-1-hydroxycyclohexyl)-2-(((2S,3R,4S,5R,6R)-3,5-dihydroxy-6-(hydroxymethyl)-4-(4-(3,4,5-trifluorophenyl)-1H-1,2,3-triazol-1-yl)tetrahydro-2H-pyran-2-yl)thio)-N-((1-fluorocyclopentyl)methyl)-N-methylacetamide]
– | 0.15 µM | 0.07 µM | – | – | CN(CCC(C)(C)C)C(=O)C(S[C@@H]1O[C@H](CO)[C@H](O)[C@H](n2cc(-c3cc(F)c(F)c(F)c3)nn2)[C@H]1O)C1(O)CCC(F)(F)CC1 (stereo partly drawn) [Example 2.44.225., 2-(4,4-Difluoro-1-hydroxycyclohexyl)-2-(((2S,3R,4S,5R,6R)-3,5-dihydroxy-6-(hydroxymethyl)-4-(4-(3,4,5-trifluorophenyl)-1H-1,2,3-triazol-1-yl)tetrahydro-2H-pyran-2-yl)thio)-N-(3,3-dimethylbutyl)-N-methylacetamide]
– | 0.06 µM | – | 0.04 µM | – | CCN(C)C(=O)[C@@H](S[C@@H]1O[C@H](CO)[C@H](O)[C@H](n2cc(-c3cc(F)c(F)c(F)c3)nn2)[C@H]1O)C1(O)CCN(C(=O)NC2CC2)CC1 [Example 2.49.203S., (S)-N-Cyclopropyl-4-(1-(((2S,3R,4S,5R,6R)-3,5-dihydroxy-6-(hydroxymethyl)-4-(4-(3,4,5-trifluorophenyl)-1H-1,2,3-triazol-1-yl)tetrahydro-2H-pyran-2-yl)thio)-2-(ethyl(methyl)amino)-2-oxoethyl)-4-hydroxypiperidine-1-carboxamide]
0.03 µM | 0.05 µM | – | – | – | CN1CCC(O)(C(S[C@@H]2O[C@H](CO)[C@H](O)[C@H](n3cc(-c4cc(F)c(F)c(F)c4)nn3)[C@H]2O)C(=O)N2CCCCC2)CC1 (stereo partly drawn) [Example 2.40.208., 2-(((2S,3R,4S,5R,6R)-3,5-Dihydroxy-6-(hydroxymethyl)-4-(4-(3,4,5-trifluorophenyl)-1H-1,2,3-triazol-1-yl)tetrahydro-2H-pyran-2-yl)thio)-2-(4-hydroxy-1-methylpiperidin-4-yl)-1-(piperidin-1-yl)ethan-1-one]
– | 1.2 µM | – | – | 0.32 µM | CO[C@@H]1[C@@H](n2cc(-c3cc(F)c(F)c(F)c3)nn2)[C@@H](O)[C@@H](CO)O[C@H]1SC(C(=O)N(C)C1CCC(C)(C)CC1)C1(O)CCC(F)(F)CC1 (stereo partly drawn) [Example 2.44.246.I., 2-(4,4-Difluoro-1-hydroxycyclohexyl)-N-(4,4-dimethylcyclohexyl)-2-(((2S,3R,4S,5R,6R)-5-hydroxy-6-(hydroxymethyl)-3-methoxy-4-(4-(3,4,5-trifluorophenyl)-1H-1,2,3-triazol-1-yl)tetrahydro-2H-pyran-2-yl)thio)-N-methylacetamide]
– | 0.07 µM | – | 0.03 µM | – | CCN(C)C(=O)C(S[C@@H]1O[C@H](CO)[C@H](O)[C@H](n2cc(-c3cc(F)c(F)c(F)c3)nn2)[C@H]1O)C1(O)CCN(S(=O)(=O)C2CC2)CC1 (stereo partly drawn) [Example 2.51.203., 2-(1-(Cyclopropylsulfonyl)-4-hydroxypiperidin-4-yl)-2-(((2S,3R,4S,5R,6R)-3,5-dihydroxy-6-(hydroxymethyl)-4-(4-(3,4,5-trifluorophenyl)-1H-1,2,3-triazol-1-yl)tetrahydro-2H-pyran-2-yl)thio)-N-ethyl-N-methylacetamide]
0.44 µM | 1.12 µM | – | – | – | CN(Cc1cccs1)C(=O)C(S[C@@H]1O[C@H](CO)[C@H](O)[C@H](n2cc(-c3cc(F)c(F)c(F)c3)nn2)[C@H]1O)C1(O)CCOCC1 (stereo partly drawn) [Example 2.41.210., 2-(((2S,3R,4S,5R,6R)-3,5-dihydroxy-6-(hydroxymethyl)-4-(4-(3,4,5-trifluorophenyl)-1H-1,2,3-triazol-1-yl)tetrahydro-2H-pyran-2-yl)thio)-2-(4-hydroxytetrahydro-2H-pyran-4-yl)-N-methyl-N-(thiophen-2-ylmethyl)acetamide]
– | 0.15 µM | – | – | 0.07 µM | CO[C@@H]1[C@@H](n2cc(-c3cc(F)c(F)c(F)c3)nn2)[C@@H](O)[C@@H](CO)O[C@H]1SC(C(=O)N(C)C1CCOCC1)C1(O)CCC(F)(F)CC1 (stereo partly drawn) [Example 2.44.213.I., 2-(4,4-Difluoro-1-hydroxycyclohexyl)-2-(((2S,3R,4S,5R,6R)-5-hydroxy-6-(hydroxymethyl)-3-methoxy-4-(4-(3,4,5-trifluorophenyl)-1H-1,2,3-triazol-1-yl)tetrahydro-2H-pyran-2-yl)thio)-N-methyl-N-(tetrahydro-2H-pyran-4-yl)acetamide]
– | 0.03 µM | 0.02 µM | – | – | CN(CC1CC1)C(=O)C(S[C@@H]1O[C@H](CO)[C@H](O)[C@H](n2cc(-c3cc(F)c(F)c(F)c3)nn2)[C@H]1O)C1(O)CCC(F)(F)CC1 (stereo partly drawn) [Example 2.44.218., N-(Cyclopropylmethyl)-2-(4,4-difluoro-1-hydroxycyclohexyl)-2-(((2S,3R,4S,5R,6R)-3,5-dihydroxy-6-(hydroxymethyl)-4-(4-(3,4,5-trifluorophenyl)-1H-1,2,3-triazol-1-yl)tetrahydro-2H-pyran-2-yl)thio)-N-methylacetamide]
– | 11.5 µM | 3.24 µM | – | – | O=C([C@H](S[C@@H]1O[C@H](CO)[C@H](O)[C@H](n2cc(-c3cc(F)c(F)c(F)c3)nn2)[C@H]1O)C1(O)CCC1)N1CCCCC1 [Example 2.34.208R., (R)-2-(((2S,3R,4S,5R,6R)-3,5-Dihydroxy-6-(hydroxymethyl)-4-(4-(3,4,5-trifluorophenyl)-1H-1,2,3-triazol-1-yl)tetrahydro-2H-pyran-2-yl)thio)-2-(1-hydroxycyclobutyl)-1-(piperidin-1-yl)ethan-1-one]

Compound | IC50 [1, 2] | IC50 (human Gal-1 (hGal-1)) | IC50 [1, 3] | IC50 [1, 4] | IC50 [1, 5]
(S)-2-(4,4-Difluoro-1-hydroxycyclohexyl)-2-(((2S,3R,4S,5R,6R)-3,5-dihydroxy-6-(hydroxymethyl)-4-(4-(3,4,5-trifluorophenyl)-1H-1,2,3-triazol-1-yl)tetrahydro-2H-pyran-2-yl)thio)-1-(piperidin-1-yl)ethan-1-one [Example 2.44.208S.] | – | 0.03 µM | 0.02 µM | – | –
